In paper PMC10221418, “The Specific Binding and Promotion Effect of Azoles on Human Aldo-Keto Reductase 7A2” (Metabolites, 2023):

How the values were obtained:
human AKR7A2 [1] = target: T1, human AKR7A2 (Homo sapiens, UniProt O43488); test: Biacore assays: binding of azole drugs and 2-CBA to immobilized AKR7A2; details: 25 °C; for kd: 1:1 binding model; for Kd: KD calculated by kd/ka
T1 construct: made in house; host or cells: E. coli BL21 (DE3) pLysS, pET-28a vector
Protocol: All experiments were performed on a Biacore 8k instrument (GE, Healthcare). According to the manufacturer’s handbook, about 1 mg/mL of freshly purified AKR7A2 protein was diluted with 10 mM sodium acetate buffer (pH 5.0) and was immobilized on a sensor chip CM5, via amine coupling, to a level of ~20,000 resonance units (RU). A reference surface was prepared in parallel with the addition of the buffer and was used for the subtraction of nonspecific binding. The analytes 2-CBA and azole drugs were diluted in a running buffer containing 2% DMSO. […] All samples were injected at a flow rate of 30 μL/min. The experimental sensorgrams were analyzed by Biacore 8k Evaluation Software Version 1.1.1.7442. The resulting curves were fitted with a 1:1 binding model, which gave the kinetic constants (ka, kd, and KD). All measurements were repeated in at least three independent experiments.

human AKR7A2 [2] = target: T1, human AKR7A2; test: Steady-state kinetics of AKR7A2 catalyzing 2-CBA in the absence or presence of azole drugs; format: biochemical; details: for effect on catalytic efficiency (kcat/Km) of AKR7A2 catalyzing 2-CBA: compared to absence of drug; for kcat / increment of kcat/Km compared with the absence of the drug: substrate 2-CBA; for increment of kcat/Km compared with the absence of the drug: highest concentration of drug (50 μM; fluconazole 100 μM)
Protocol: (§1) The steady-state kinetic parameters of AKR7A2 catalyzing 2-CBA were measured on a UV-2550 spectrophotometer (SHIMADZU, Japan) in the absence or presence of azole drugs. All drugs were dissolved with DMSO. Fluconazole, voriconazole, and ketoconazole were all made up of 2, 5, and 10 mM of mother solution. […] The steady-state kinetic assays were performed, as before, with some modifications. […] The reactions were initiated by the addition of 2-CBA and were monitored for 4 min at 25 °C. […] The kinetic data were fitted to the Michaelis-Menten equation [56, 57] using GraphPad Prism 8.0 (GraphPad Software, San Diego, CA, USA). The kinetic parameters Km and kcat were generated by the fitting. The resulting data were expressed as the mean ± standard deviation (SD) based on at least three independent experiments. Statistical significance was analyzed by ANOVA, and the significance was defined as * p < 0.05, ** p < 0.01, *** p < 0.001, or **** p < 0.0001.

[3] = set-up: method as in PMID 12942409; details: patients, after administration; cited from earlier work
human AKR7A2 [4] = target: T1, human AKR7A2; test: Steady-state kinetics of AKR7A2 with SSA as a substrate in the absence or presence of voriconazole; format: biochemical; details: for kcat: substrate SSA
Protocol: as §1, with “The steady-state kinetic parameters of AKR7A2 catalyzing 2-CBA were measured on a UV-2550 spectrophotometer (SHIMADZU, Japan) in the absence or presence of azole drugs.” left out, “The reactions were initiated by the addition of 2-CBA and were monitored for 4 min at 25 °C.” left out

T1 sequence (O43488 39-359): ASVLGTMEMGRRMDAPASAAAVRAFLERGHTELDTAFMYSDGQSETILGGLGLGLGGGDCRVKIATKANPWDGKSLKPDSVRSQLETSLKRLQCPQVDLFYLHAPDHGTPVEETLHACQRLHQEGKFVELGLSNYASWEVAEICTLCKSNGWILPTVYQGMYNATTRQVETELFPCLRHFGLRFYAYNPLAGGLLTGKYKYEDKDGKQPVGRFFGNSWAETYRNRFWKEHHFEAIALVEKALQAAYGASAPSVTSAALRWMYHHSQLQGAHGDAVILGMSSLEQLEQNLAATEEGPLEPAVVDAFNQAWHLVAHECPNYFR

| SMILES | kd (human AKR7A2 [1]) | Kd (human AKR7A2 [1]) [µM] | effect on catalytic efficiency (kcat/Km) of AKR7A2 catalyzing 2-CBA (human AKR7A2 [2]) | kcat (human AKR7A2 [2]; drug concentration 5 μM) [s⁻¹] | kcat (human AKR7A2 [2]; drug concentration 20 μM) [s⁻¹] | kcat (human AKR7A2 [2]; drug concentration 50 μM) [s⁻¹] | effect on catalysis of AKR7A2 with SSA as a substrate (human AKR7A2 [4]; concentration range of 0–50 µM) | kcat (human AKR7A2 [4]; drug concentration 5 μM) [s⁻¹] | kcat (human AKR7A2 [4]; drug concentration 20 μM) [s⁻¹] | kcat (human AKR7A2 [4]; drug concentration 50 μM) [s⁻¹] | kcat (human AKR7A2 [2]; drug concentration 100 μM) [s⁻¹] | increment of kcat/Km compared with the absence of the drug (human AKR7A2 [2]) [%] | cerebrospinal fluid concentrations [3] [µg/mL] |
| --- | --- | --- | --- | --- | --- | --- | --- | --- | --- | --- | --- | --- | --- |
| Clc1ccc(COC(Cn2ccnc2)c2ccc(Cl)cc2Cl)cc1 (centres unmarked) [econazole] | 15.9 ± 0.72 (s^−1) × 10^2 | 565 ± 84 | did not significantly change | 1.194 ± 0.0285 | 1.213 ± 0.0258 | 1.262 ± 0.0635 | – | – | – | – | – | – | – |
| CC(=O)N1CCN(c2ccc(OCC3COC(Cn4ccnc4)(c4ccc(Cl)cc4Cl)O3)cc2)CC1 (centres unmarked) [ketoconazole] | 12.6 ± 1.91 (s^−1) × 10^2 | 1800 ± 438 | did not significantly change | – | 1.302 ± 0.0268 | 1.271 ± 0.0303 | – | – | – | – | 1.44 ± 0.0348 | – | – |
| CCC(C)n1ncn(-c2ccc(N3CCN(c4ccc(OCC5COC(Cn6cncn6)(c6ccc(Cl)cc6Cl)O5)cc4)CC3)cc2)c1=O (centres unmarked) [itraconazole] | 0.0263 ± 0.0035 s⁻¹ | 0.81 ± 0.44 | enhanced significantly | 1.342 ± 0.0237 | 1.219 ± 0.0167 | 1.107 ± 0.023 | – | – | – | – | – | 35 | – |
| OC(Cn1cncn1)(Cn1cncn1)c1ccc(F)cc1F [fluconazole] | 0.0218 ± 0.0046 s⁻¹ | 8.11 ± 4.83 | enhanced significantly | – | 1.195 ± 0.0173 | 1.221 ± 0.0192 | – | – | – | – | 1.072 ± 0.0185 | 64 | – |
| O=Cc1ccccc1C(=O)O [2-CBA, 2-carboxybenzaldehyde] | 0.0229 ± 0.0202 s⁻¹ | 19.3 ± 14.9 | – | – | – | – | – | – | – | – | – | – | – |

Second part, led by results:

| kd (human AKR7A2 [1]) | Kd (human AKR7A2 [1]) [µM] | effect on catalytic efficiency (kcat/Km) of AKR7A2 catalyzing 2-CBA (human AKR7A2 [2]) | kcat (human AKR7A2 [2]; drug concentration 5 μM) [s⁻¹] | kcat (human AKR7A2 [2]; drug concentration 20 μM) [s⁻¹] | kcat (human AKR7A2 [2]; drug concentration 50 μM) [s⁻¹] | effect on catalysis of AKR7A2 with SSA as a substrate (human AKR7A2 [4]; concentration range of 0–50 µM) | kcat (human AKR7A2 [4]; drug concentration 5 μM) [s⁻¹] | kcat (human AKR7A2 [4]; drug concentration 20 μM) [s⁻¹] | kcat (human AKR7A2 [4]; drug concentration 50 μM) [s⁻¹] | kcat (human AKR7A2 [2]; drug concentration 100 μM) [s⁻¹] | increment of kcat/Km compared with the absence of the drug (human AKR7A2 [2]) [%] | SMILES | cerebrospinal fluid concentrations [3] [µg/mL] |
| --- | --- | --- | --- | --- | --- | --- | --- | --- | --- | --- | --- | --- | --- |
| 0.0168 ± 0.0072 s⁻¹ | 2.98 ± 2.11 | did not significantly change | – | 1.126 ± 0.0163 | 1.237 ± 0.0168 | efficiently promote the catalysis | 1.297 ± 0.0377 | 1.306 ± 0.024 | 1.326 ± 0.0222 | 1.258 ± 0.0248 | – | C[C@@H](c1ncncc1F)[C@](O)(Cn1cncn1)c1ccc(F)cc1F [voriconazole] | 0.08 to 3.93 |
| 0.0536 ± 0.0017 s⁻¹ | 84.9 ± 7.21 | enhanced significantly | 1.205 ± 0.0228 | 1.196 ± 0.0235 | 1.236 ± 0.0292 | – | – | – | – | – | 67 | Clc1ccc(COC(Cn2ccnc2)c2ccc(Cl)cc2Cl)c(Cl)c1 (centres unmarked) [miconazole] | – |
| 0.0298 ± 0.0059 s⁻¹ | 1.35 ± 0.44 | enhanced significantly | 1.239 ± 0.0212 | 1.273 ± 0.029 | 1.029 ± 0.0295 | – | – | – | – | – | 74 | CC[C@@H]([C@H](C)O)n1ncn(-c2ccc(N3CCN(c4ccc(OC[C@@H]5CO[C@@](Cn6cncn6)(c6ccc(F)cc6F)C5)cc4)CC3)cc2)c1=O [posaconazole] | – |
